The values below come from ChEMBL document CHEMBL1201862, “PubChem BioAssay data set” (2004).

Assay [1] has as its target T1, Intestinal-type alkaline phosphatase (Homo sapiens, UniProt P09923). Briefly: Dose Response confirmation of uHTS hits from a small molecule inhibitors of human intestinal alkaline phosphatase via a luminescent assay. [Related pubchem assays (depositor defined):AID2544, AID2574]. Type of assay: functional.
Assay [2] deals with Alkaline phosphatase, placental type (Homo sapiens, UniProt P05187). Nature of the assay: PLAP enzyme inhibitors, confirmation, biochemical, luminescence (AID 1512). It counts as functional.
Assay [3] addresses T2, Alkaline phosphatase, tissue-nonspecific isozyme (Homo sapiens, UniProt P05186).
T2 sequence (P05186 whole entry): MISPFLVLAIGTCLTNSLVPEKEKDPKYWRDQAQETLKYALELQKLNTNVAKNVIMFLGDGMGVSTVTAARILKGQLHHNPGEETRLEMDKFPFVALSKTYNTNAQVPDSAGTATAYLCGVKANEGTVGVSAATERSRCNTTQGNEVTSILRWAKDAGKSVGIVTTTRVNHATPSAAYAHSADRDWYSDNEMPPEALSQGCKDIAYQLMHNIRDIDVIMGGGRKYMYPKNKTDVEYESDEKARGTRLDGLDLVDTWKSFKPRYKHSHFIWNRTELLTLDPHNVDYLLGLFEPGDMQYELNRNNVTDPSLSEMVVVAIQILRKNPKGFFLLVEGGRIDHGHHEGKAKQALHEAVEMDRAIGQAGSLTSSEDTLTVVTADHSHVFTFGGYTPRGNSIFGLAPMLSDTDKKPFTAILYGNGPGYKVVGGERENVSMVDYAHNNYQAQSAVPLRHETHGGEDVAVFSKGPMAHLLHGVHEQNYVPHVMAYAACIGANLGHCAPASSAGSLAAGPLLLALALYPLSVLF
Briefly: human TNAP enzyme inhibitors, SAR follow-up, biochemical, luminescent, dose response (AID 1056).

The target in assay [4] is DNA dC->dU-editing enzyme APOBEC-3A (Homo sapiens, UniProt P31941). Nature of the assay: APOBEC3A DNA deaminase inhibitors, dose response, biochemical (AID 504722). Type of assay: functional.
For assay [5], the target named is Glucose-6-phosphate 1-dehydrogenase (Homo sapiens, UniProt P11413). Briefly: human G6PD enzyme inhibitors, dose response, selectivity assay for P. falciparum G6PD inhibitor project, biochemical, fluorescence (AID 504792). It counts as functional.
The target of the next assay is Phosphomannomutase 2 (Homo sapiens, UniProt O15305). Briefly: Counter screen SAR assay for PMM2 inhibitors via a fluorescence intensity assay. [Related pubchem assays (depositor defined):AID1545, AID1574]. In general terms: Counterscreens check selectivity or assay interference.
The target of assay [6] is Phosphoethanolamine/phosphocholine phosphatase (Homo sapiens, UniProt Q8TCT1). Briefly: SAR assay for compounds that inhibit PHOSPHO1. [Related pubchem assays (depositor defined):AID1545, AID1565, AID1574].
Assay [7] concerns the target DNA dC->dU-editing enzyme APOBEC-3G (Homo sapiens, UniProt Q9HC16). Nature of the assay: Dose Response confirmation of small molecule APOBEC3G DNA Deaminase Inhibitors via a fluorescence-based single-stranded DNA deaminase assay. [Related pubchem assays (depositor defined):AID493012, AID493028]. It counts as functional.
Assay [8] deals with T3, Short transient receptor potential channel 4 (Mus musculus, UniProt Q9QUQ5).
T3 sequence (Q9QUQ5 whole entry): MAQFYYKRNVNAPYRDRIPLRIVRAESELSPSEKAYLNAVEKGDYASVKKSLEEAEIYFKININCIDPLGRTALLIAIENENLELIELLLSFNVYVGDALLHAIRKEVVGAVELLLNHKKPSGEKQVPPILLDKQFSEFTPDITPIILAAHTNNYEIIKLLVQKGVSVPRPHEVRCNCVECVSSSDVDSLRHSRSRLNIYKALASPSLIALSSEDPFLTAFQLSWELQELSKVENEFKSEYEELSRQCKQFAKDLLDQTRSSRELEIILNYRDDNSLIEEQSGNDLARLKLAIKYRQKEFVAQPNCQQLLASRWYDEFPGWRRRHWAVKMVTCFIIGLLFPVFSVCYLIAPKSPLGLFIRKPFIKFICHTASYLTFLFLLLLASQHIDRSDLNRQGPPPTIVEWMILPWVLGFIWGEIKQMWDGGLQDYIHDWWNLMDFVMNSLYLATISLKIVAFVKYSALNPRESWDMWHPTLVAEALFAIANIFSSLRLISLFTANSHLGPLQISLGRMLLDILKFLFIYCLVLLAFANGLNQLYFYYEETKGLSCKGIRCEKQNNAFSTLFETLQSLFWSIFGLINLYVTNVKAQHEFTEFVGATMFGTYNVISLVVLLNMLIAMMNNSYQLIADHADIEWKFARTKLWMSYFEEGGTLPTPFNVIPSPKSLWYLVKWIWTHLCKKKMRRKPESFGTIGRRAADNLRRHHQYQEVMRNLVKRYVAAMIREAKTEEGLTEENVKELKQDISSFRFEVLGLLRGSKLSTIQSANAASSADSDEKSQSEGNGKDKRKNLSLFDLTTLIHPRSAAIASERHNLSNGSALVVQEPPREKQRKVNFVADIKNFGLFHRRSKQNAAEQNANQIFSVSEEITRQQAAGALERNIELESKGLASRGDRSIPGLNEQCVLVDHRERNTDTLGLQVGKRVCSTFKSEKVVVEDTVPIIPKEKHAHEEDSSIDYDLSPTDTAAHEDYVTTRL
Briefly: TRPC4 positive allosteric modulators, dose response, cell-based, HEK293 TRPC4/mu-opioid, Fluo-4 calcium, EC20 DAMGO (AID 434941).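 Note: HEK293 cells coexpressing TRPC4 and mu opioid receptor stimulated by EC20 DAMGO.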 Type of assay: functional.

Assay [9] concerns the target Potassium voltage-gated channel subfamily KQT member 2 (Rattus norvegicus, UniProt O88943). Nature of the assay: retigabine-insensitive KCNQ2 potentiators, concentration-response, dose response, cell-based, retigabine-insensitive compounds (AID 2654). Type of assay: functional.
For another assay, the target named is Beta-galactosidase (Escherichia coli, UniProt Q8VNN2). Briefly: beta-galactosidase enzyme inhibitors and activators, dose response, artefact control for CCR6 antagonist project, biochemical, E. coli enzyme, set 3 (AID 504712). It counts as functional.
The next assay deals with T4, Coagulation factor XII (Homo sapiens, UniProt P00748).
T4 sequence (P00748 whole entry): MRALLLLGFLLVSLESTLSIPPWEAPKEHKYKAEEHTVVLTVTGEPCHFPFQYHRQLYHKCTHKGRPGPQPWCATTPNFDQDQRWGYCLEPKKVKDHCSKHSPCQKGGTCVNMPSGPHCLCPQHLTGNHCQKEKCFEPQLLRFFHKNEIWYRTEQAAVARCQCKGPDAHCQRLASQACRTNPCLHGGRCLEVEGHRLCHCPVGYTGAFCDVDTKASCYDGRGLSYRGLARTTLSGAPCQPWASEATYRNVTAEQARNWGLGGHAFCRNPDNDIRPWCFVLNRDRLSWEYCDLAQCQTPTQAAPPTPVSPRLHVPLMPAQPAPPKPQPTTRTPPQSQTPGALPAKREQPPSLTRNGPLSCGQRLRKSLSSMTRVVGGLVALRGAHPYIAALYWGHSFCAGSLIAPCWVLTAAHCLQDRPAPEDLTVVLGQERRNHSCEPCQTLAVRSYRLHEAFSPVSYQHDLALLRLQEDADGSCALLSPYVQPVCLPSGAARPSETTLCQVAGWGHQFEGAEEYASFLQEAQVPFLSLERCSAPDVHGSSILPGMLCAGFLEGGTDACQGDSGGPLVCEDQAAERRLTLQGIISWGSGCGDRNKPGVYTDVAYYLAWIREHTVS
Nature of the assay: FXIIa inhibitor potency, concentration-response, biochemical (AID 716). It counts as functional.

The target of another assay is T5, Caspase-3 (Homo sapiens, UniProt P42574).
T5 sequence (P42574 whole entry): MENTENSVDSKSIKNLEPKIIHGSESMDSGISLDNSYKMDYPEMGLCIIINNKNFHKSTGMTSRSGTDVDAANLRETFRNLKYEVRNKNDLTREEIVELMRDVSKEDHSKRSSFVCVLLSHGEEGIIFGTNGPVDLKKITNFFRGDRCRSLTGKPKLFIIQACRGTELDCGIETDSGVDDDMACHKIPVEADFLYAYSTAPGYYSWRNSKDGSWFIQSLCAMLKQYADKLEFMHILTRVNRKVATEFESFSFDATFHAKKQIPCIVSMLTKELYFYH
Briefly: procaspase-3 activators, dose response, biochemical, absorbance (AID 489014).

The next assay deals with Caspase-7 (Homo sapiens, UniProt P55210). Briefly: procaspase-7 activators, dose response, counter-screen for procaspase-3 activator project, biochemical, absorbance (AID 489013).
The target in another assay is ORF 73 (Human herpesvirus 8, UniProt O40947). Nature of the assay: inhibitors of C-LANA binding to LBS DNA, dose response, biochemical, fluorescence polarization, cherry-picked samples (AID 504725).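 Note: fluorescence polarization of a labeled DNA duplex reporting LANA DNA binding; potency is for inhibitors that block LANA binding to the DNA.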 Also on record: species or system Human gammaherpesvirus 8.
For assay [10], the target named is Intestinal-type alkaline phosphatase (Mus musculus, UniProt P24822). Nature of the assay: PubChem AID 488785. Type of assay: functional.
The target of assay [11] is T2, Alkaline phosphatase, tissue-nonspecific isozyme. Briefly: TNAP enzyme inhibition by screening hits, dose response, selectivity assay for mouse IAP inhibitor project, biochemical, human TNAP, uHTS hits (AID 488906). Type of assay: functional.
For assay [12], the target named is T1, Intestinal-type alkaline phosphatase. Nature of the assay: inhibition of human intestinal alkaline phosphatase – biochemical, dose response (AID 488876). Type of assay: functional.
For assay [13], the target named is T6, Histone-lysine N-methyltransferase NSD2 (Homo sapiens, UniProt O96028).
T6 sequence (O96028 whole entry): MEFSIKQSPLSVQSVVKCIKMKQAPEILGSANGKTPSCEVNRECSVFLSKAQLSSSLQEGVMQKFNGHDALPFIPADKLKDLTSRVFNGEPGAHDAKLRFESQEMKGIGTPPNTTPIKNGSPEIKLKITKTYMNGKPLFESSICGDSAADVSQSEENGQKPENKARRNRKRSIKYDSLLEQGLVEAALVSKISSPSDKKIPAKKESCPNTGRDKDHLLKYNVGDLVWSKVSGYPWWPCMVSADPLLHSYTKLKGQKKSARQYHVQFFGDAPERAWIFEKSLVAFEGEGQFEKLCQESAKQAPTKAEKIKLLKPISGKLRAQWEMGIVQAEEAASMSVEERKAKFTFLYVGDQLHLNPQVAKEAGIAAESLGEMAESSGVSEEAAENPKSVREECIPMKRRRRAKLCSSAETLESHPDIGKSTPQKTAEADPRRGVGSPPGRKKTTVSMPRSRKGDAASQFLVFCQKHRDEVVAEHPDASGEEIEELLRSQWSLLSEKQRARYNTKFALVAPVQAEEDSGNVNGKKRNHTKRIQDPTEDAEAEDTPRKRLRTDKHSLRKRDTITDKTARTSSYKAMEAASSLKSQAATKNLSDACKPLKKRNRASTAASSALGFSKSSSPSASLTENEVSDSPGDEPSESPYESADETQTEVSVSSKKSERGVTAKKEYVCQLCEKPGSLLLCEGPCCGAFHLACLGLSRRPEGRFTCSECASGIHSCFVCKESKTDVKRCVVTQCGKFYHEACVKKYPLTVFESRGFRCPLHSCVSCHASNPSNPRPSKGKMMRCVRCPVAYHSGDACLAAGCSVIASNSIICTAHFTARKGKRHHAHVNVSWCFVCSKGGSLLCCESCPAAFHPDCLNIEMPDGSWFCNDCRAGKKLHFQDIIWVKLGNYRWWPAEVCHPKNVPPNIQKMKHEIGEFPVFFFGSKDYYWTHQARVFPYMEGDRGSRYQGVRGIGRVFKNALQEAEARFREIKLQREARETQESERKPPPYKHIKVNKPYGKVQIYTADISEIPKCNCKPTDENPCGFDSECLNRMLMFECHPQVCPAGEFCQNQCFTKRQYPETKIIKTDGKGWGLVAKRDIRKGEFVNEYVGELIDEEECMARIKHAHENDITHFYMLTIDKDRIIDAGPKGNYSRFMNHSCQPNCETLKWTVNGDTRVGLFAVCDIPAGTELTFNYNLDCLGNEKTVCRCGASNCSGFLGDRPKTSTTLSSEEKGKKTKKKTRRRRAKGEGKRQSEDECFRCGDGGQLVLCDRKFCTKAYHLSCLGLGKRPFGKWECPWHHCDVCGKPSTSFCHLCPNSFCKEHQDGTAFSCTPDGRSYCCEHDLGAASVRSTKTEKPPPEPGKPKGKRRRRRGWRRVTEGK
It counts as biochemical.

Assay [14] deals with 1-phosphatidylinositol 4,5-bisphosphate phosphodiesterase gamma-1 (Homo sapiens, UniProt P19174). Nature of the assay: Counterscreen for inhibitors of phospholipase C isozymes (PLC-B3): Fluorescence-based biochemical high throughput dose response assay to identify inhibitors of phospholipase C isozymes (PLC-gamma1).
The target in assay [15] is 1-phosphatidylinositol 4,5-bisphosphate phosphodiesterase beta-3 (Homo sapiens, UniProt Q01970). Nature of the assay: Fluorescence-based biochemical high throughput dose response assay to identify inhibitors of phospholipase C isozymes (PLC-B3).

Activity calls are given as the source filed them. Bounds are passed on as bounds.

T1 sequence (P09923 whole entry): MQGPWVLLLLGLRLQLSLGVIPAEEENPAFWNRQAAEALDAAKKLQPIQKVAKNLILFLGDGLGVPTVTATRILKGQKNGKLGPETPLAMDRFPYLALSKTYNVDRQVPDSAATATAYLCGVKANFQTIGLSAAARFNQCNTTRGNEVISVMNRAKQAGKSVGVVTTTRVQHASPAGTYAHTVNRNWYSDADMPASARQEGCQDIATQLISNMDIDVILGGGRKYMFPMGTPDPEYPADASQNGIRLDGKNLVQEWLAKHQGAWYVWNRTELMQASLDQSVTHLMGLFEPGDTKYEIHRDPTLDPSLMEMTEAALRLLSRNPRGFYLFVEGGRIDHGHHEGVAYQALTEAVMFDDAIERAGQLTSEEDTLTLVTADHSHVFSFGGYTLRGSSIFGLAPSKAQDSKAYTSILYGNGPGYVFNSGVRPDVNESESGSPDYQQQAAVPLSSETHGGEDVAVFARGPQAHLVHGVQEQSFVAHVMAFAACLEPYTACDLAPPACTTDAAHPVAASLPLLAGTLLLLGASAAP
Chain of 1-phosphatidylinositol 4,5-bisphosphate phosphodiesterase beta-3 (Q01970 whole entry): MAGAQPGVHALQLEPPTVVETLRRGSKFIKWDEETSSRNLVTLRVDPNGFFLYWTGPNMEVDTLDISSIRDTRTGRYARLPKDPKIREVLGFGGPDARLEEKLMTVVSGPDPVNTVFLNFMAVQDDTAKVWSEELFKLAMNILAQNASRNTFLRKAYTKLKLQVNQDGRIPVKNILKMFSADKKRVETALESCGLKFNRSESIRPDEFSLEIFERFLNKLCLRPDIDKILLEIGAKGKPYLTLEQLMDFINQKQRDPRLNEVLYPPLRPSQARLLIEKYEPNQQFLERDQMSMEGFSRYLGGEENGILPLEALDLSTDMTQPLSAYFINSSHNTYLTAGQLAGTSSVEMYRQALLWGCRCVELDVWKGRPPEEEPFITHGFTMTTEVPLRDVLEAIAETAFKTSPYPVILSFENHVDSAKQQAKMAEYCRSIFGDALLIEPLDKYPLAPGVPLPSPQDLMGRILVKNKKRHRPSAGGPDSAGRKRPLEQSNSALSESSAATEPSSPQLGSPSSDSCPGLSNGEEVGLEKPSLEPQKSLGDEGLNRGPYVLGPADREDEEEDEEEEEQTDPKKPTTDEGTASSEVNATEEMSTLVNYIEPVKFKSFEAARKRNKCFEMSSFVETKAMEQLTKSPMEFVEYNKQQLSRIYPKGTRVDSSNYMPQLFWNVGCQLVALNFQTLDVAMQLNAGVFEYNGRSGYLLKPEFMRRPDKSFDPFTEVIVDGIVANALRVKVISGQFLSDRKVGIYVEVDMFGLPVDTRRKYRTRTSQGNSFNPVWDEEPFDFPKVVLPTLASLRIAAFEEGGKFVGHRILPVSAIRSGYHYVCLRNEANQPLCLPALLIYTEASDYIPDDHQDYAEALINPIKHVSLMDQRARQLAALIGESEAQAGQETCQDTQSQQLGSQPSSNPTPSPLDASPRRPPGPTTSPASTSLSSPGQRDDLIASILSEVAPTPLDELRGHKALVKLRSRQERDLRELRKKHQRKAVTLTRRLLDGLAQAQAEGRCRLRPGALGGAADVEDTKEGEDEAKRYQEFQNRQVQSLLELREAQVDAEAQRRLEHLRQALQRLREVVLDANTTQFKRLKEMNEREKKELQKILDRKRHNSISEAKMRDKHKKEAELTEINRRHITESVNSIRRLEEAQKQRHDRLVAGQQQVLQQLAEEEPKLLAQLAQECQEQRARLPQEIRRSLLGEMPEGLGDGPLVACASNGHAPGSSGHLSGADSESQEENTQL
Chain of Intestinal-type alkaline phosphatase (Mus musculus, UniProt P24822) (P24822 whole entry): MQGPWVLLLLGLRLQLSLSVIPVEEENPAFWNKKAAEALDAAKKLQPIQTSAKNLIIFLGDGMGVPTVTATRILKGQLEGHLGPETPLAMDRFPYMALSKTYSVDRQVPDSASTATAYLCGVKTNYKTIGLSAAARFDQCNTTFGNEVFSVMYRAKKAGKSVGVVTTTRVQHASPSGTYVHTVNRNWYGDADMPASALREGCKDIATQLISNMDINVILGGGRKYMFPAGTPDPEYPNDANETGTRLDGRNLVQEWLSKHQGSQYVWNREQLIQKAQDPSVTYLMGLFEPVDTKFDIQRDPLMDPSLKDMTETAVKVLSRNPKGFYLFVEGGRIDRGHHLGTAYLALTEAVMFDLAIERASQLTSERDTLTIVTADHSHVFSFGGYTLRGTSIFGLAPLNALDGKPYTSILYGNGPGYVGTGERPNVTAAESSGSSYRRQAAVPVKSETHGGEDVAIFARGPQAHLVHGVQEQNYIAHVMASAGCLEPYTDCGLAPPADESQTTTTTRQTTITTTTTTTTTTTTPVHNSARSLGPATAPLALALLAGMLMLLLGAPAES
Chain of Potassium voltage-gated channel subfamily KQT member 2 (O88943 whole entry): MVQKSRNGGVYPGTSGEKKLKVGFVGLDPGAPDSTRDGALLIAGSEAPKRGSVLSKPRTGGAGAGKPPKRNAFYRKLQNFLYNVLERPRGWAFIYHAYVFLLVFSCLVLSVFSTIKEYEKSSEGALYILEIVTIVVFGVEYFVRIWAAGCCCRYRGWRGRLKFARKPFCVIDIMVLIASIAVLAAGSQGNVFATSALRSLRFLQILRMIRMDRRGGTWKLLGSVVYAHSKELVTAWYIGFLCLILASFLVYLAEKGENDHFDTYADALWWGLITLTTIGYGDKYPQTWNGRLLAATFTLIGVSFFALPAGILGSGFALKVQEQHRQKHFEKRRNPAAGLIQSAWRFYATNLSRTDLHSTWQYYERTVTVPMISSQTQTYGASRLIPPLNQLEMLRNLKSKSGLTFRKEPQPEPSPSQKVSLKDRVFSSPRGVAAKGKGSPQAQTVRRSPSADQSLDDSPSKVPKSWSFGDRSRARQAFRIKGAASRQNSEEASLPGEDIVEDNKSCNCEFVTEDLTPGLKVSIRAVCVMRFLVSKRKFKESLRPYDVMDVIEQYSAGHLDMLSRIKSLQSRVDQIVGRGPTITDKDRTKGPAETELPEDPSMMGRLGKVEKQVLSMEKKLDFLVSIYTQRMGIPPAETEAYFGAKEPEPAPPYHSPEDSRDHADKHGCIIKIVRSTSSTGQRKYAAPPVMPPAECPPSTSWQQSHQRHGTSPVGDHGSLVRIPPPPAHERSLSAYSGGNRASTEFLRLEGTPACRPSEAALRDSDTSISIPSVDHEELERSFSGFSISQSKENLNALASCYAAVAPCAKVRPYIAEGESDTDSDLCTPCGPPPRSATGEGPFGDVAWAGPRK
Chain of ORF 73 (O40947 whole entry): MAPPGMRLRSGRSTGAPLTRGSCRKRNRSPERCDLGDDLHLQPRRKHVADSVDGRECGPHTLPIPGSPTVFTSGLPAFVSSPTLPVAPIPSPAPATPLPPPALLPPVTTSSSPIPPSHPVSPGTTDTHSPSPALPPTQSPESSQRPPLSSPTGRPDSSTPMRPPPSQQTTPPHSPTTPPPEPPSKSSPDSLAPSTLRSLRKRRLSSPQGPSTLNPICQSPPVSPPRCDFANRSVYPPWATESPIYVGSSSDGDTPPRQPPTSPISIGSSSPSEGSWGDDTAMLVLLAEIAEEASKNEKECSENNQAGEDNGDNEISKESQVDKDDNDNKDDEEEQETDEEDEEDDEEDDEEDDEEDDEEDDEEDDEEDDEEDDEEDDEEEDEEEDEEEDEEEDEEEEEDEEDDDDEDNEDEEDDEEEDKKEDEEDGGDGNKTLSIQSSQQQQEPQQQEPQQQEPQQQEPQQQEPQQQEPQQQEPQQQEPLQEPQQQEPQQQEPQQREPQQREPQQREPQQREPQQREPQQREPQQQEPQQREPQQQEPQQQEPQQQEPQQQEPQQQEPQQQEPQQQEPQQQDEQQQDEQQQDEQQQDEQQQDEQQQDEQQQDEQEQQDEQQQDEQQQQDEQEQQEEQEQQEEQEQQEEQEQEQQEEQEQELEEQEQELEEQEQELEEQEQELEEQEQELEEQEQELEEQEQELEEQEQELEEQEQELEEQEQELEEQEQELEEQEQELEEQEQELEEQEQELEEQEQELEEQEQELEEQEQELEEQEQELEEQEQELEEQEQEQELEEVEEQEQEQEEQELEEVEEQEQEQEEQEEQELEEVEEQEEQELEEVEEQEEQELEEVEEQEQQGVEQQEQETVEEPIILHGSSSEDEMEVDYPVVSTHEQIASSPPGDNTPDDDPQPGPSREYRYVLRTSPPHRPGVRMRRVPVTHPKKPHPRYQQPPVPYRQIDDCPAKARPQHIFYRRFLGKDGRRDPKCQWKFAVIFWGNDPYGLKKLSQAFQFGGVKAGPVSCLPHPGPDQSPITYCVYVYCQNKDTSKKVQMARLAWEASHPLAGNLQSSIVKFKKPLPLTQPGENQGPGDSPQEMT
Chain of Alkaline phosphatase, placental type (P05187 whole entry): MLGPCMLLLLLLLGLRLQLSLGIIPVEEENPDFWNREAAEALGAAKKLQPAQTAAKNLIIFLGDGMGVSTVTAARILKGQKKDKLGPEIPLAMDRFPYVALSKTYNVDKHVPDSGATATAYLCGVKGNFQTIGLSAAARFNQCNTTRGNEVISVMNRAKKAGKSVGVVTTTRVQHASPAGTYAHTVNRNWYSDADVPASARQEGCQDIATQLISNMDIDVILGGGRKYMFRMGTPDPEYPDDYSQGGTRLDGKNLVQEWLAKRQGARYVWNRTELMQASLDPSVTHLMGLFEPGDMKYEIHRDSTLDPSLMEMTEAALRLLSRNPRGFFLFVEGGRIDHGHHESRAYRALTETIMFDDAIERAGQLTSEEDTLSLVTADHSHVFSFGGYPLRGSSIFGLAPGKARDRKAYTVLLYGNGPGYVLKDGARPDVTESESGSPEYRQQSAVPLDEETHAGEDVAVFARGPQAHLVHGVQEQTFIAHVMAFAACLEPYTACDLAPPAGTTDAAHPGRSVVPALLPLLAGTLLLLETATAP
Chain of DNA dC->dU-editing enzyme APOBEC-3A (P31941 whole entry): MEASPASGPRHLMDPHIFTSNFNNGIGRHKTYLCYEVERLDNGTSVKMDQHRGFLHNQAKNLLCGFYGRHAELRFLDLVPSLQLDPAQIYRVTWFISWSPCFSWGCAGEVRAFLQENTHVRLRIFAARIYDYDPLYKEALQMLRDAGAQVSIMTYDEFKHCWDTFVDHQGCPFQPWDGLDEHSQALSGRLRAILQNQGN

In general, IC50 refers to the midpoint of a concentration-inhibition curve. `Cc1cc2nc(C3CCN(Cc4nnnn4Cc4cccs4)CC3)[nH]c2cc1C`: the IC50 in [1] is > 100 µM (inactive); in [2] it was 2.73 µM (active); in assay [3], 5.64 µM (active).
On to `O=c1c2cc(F)ccc2sn1-c1ccc(F)cc1`, for which the IC50 in assay [4] is > 100 µM (inactive); in [5], 16.7 µM (active); on Phosphomannomutase 2, 86.9 µM (active); in [6], > 10 µM (inactive); in assay [7], 15.5 µM (active); in assay [3], > 100 µM (inactive).
As usually defined, the EC50 is the concentration giving half of the maximal effect. For `COc1ccc(/N=C(\C)C2=C(O)C(=O)N(CCO)C2c2ccc([N+](=O)[O-])cc2)cc1` (configuration not stated), in [8], the EC50 is 0.47 µM (active).
On to `Cc1cc(C)cc(NC(=O)Nc2cccnc2)c1`, for which the EC50 in assay [9] was 10.7 µM (active).
Turning to `CCCOc1cccc(C(=O)NC(=S)Nc2cccc(C(F)(F)F)c2)c1`, at Beta-galactosidase, the IC50 was > 66.6 µM (inactive).
Turning to `CCOC(=O)CSc1nnc(CNC(=O)Cc2ccccc2)n1C`, the IC50 at Coagulation factor XII was > 50 µM (inactive).
In the case of `CC1(C)CC(=O)C2=C(C1)c1c(ccc3ccccc13)NC2c1ccc(Br)o1` (configuration not stated), the EC50 on Caspase-3 and at Caspase-7 was > 85.2 µM (inactive) in each case.
As usually defined, the AC50 is the concentration at which the activity in the assay is half-maximal. As to `O=C(CCCN1C(=O)/C(=C\c2ccco2)SC1=S)Nc1ccc(O)cc1C(=O)O`, the results for the AC50 (at ORF 73; in [13]) were 47.2 µM (active) and 16.1 µM (active), respectively. For the same compound, the IC50 is 6.43 µM (active) in assay [10]; > 100 µM (inactive) in assay [11]; > 100 µM (inactive) in assay [12]; > 122 µM (inactive) in assay [14]; > 122 µM (inactive) in [15].
